Source: PubChem BioAssay (NCI)
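In this assay, cells in 96-well plates receive the compound at five concentrations for 48 hours. Endpoints are linearly interpolated between the surrounding concentrations. GI50 = concentration required for 50% inhibition of growth. TGI is the concentration that stops growth completely.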

How the values were obtained:
Test in all cases: NCI anticancer screen, dose series, 48 h
786-0 renal = tested on: 786-0 renal
A498 renal = tested on: A498 renal
A549 NSCLC = tested on: A549 NSCLC
ACHN renal = tested on: ACHN renal
BT-549 breast = tested on: BT-549 breast
CAKI-1 renal = tested on: CAKI-1 renal
CCRF-CEM leukemia = tested on: CCRF-CEM leukemia
COLO 205 colon = tested on: COLO 205 colon
DU-145 prostate = tested on: DU-145 prostate
EKVX NSCLC = tested on: EKVX NSCLC
HCC-2998 colon = tested on: HCC-2998 colon
HCT-116 colon = tested on: HCT-116 colon
HCT-15 colon = tested on: HCT-15 colon
HL-60(TB) leukemia = tested on: HL-60(TB) leukemia
HOP-62 NSCLC = tested on: HOP-62 NSCLC
HOP-92 NSCLC = tested on: HOP-92 NSCLC
HS 578T breast = tested on: HS 578T breast
HT29 colon = tested on: HT29 colon
IGROV1 ovarian = tested on: IGROV1 ovarian
K-562 leukemia = tested on: K-562 leukemia
M14 melanoma = tested on: M14 melanoma
MALME-3M melanoma = tested on: MALME-3M melanoma
MCF7 breast = tested on: MCF7 breast
MDA-MB-231 breast = tested on: MDA-MB-231 breast
MDA-MB-468 breast = tested on: MDA-MB-468 breast
MOLT-4 leukemia = tested on: MOLT-4 leukemia
NCI-H226 lung = tested on: NCI-H226 lung
NCI-H23 lung = tested on: NCI-H23 lung
NCI-H460 lung = tested on: NCI-H460 lung
NCI-H522 lung = tested on: NCI-H522 lung
NCI/ADR-RES ovarian = tested on: NCI/ADR-RES ovarian
OVCAR-3 ovarian = tested on: OVCAR-3 ovarian
OVCAR-4 ovarian = tested on: OVCAR-4 ovarian
OVCAR-5 ovarian = tested on: OVCAR-5 ovarian
OVCAR-8 ovarian = tested on: OVCAR-8 ovarian
PC-3 prostate = tested on: PC-3 prostate
RPMI-8226 leukemia = tested on: RPMI-8226 leukemia
RXF 393 renal = tested on: RXF 393 renal
SF-268 CNS = tested on: SF-268 CNS
SF-295 CNS = tested on: SF-295 CNS
SF-539 CNS = tested on: SF-539 CNS
SK-MEL-2 melanoma = tested on: SK-MEL-2 melanoma
SK-MEL-28 melanoma = tested on: SK-MEL-28 melanoma
SK-MEL-5 melanoma = tested on: SK-MEL-5 melanoma
SK-OV-3 ovarian = tested on: SK-OV-3 ovarian
SN12C renal = tested on: SN12C renal
SNB-19 CNS = tested on: SNB-19 CNS
SNB-75 CNS = tested on: SNB-75 CNS
SR leukemia = tested on: SR leukemia
SW-620 colon = tested on: SW-620 colon
T-47D breast = tested on: T-47D breast
TK-10 renal = tested on: TK-10 renal
U251 CNS = tested on: U251 CNS
UACC-257 melanoma = tested on: UACC-257 melanoma
UACC-62 melanoma = tested on: UACC-62 melanoma
UO-31 renal = tested on: UO-31 renal

O=C(Nc1ccc(OCC(=O)c2ccccc2)cc1)Nc1ccc(Cl)c(C(F)(F)F)c1
GI50 (786-0 renal): 4.12 µM | TGI (786-0 renal): 32.5 µM | GI50 (A498 renal): 3.59 µM | TGI (A498 renal): 18.2 µM | GI50 (A549 NSCLC): 3.64 µM | TGI (A549 NSCLC): > 100 µM | GI50 (ACHN renal): 3.17 µM | TGI (ACHN renal): > 100 µM | GI50 (BT-549 breast): 11.5 µM | TGI (BT-549 breast): > 100 µM | GI50 (CAKI-1 renal): 3.31 µM | TGI (CAKI-1 renal): > 100 µM | GI50 (CCRF-CEM leukemia): 3.54 µM | TGI (CCRF-CEM leukemia): > 100 µM | GI50 (COLO 205 colon): 4.32 µM | TGI (COLO 205 colon): > 100 µM | GI50 (DU-145 prostate): 6.81 µM | TGI (DU-145 prostate): > 100 µM | GI50 (EKVX NSCLC): 3.26 µM | TGI (EKVX NSCLC): > 100 µM | GI50 (HCC-2998 colon): 3.37 µM | TGI (HCC-2998 colon): > 100 µM | GI50 (HCT-116 colon): 3.69 µM | TGI (HCT-116 colon): > 100 µM | GI50 (HCT-15 colon): 2.92 µM | TGI (HCT-15 colon): > 100 µM | GI50 (HL-60(TB) leukemia): 3 µM | TGI (HL-60(TB) leukemia): 40.2 µM | GI50 (HOP-62 NSCLC): 5.76 µM | TGI (HOP-62 NSCLC): 35.2 µM | GI50 (HOP-92 NSCLC): 3.48 µM | TGI (HOP-92 NSCLC): 17.5 µM | GI50 (HS 578T breast): 3.51 µM | TGI (HS 578T breast): 31.1 µM | GI50 (HT29 colon): 3.34 µM | TGI (HT29 colon): > 100 µM | GI50 (IGROV1 ovarian): 4.38 µM | TGI (IGROV1 ovarian): > 100 µM | GI50 (K-562 leukemia): 3.66 µM | TGI (K-562 leukemia): > 100 µM | GI50 (M14 melanoma): 2.97 µM | TGI (M14 melanoma): > 100 µM | GI50 (MALME-3M melanoma): 3.11 µM | TGI (MALME-3M melanoma): > 100 µM | GI50 (MCF7 breast): 3.37 µM | TGI (MCF7 breast): > 100 µM | GI50 (MDA-MB-231 breast): 2.87 µM | TGI (MDA-MB-231 breast): 11.4 µM | GI50 (MDA-MB-468 breast): 2.41 µM | TGI (MDA-MB-468 breast): 7.05 µM | GI50 (MOLT-4 leukemia): 2.48 µM | TGI (MOLT-4 leukemia): > 100 µM | GI50 (NCI-H226 lung): 3.73 µM | TGI (NCI-H226 lung): > 100 µM | GI50 (NCI-H23 lung): 3.28 µM | TGI (NCI-H23 lung): 48.9 µM | GI50 (NCI-H460 lung): 3.07 µM | TGI (NCI-H460 lung): > 100 µM | GI50 (NCI-H522 lung): 1.96 µM | TGI (NCI-H522 lung): 6.15 µM | GI50 (NCI/ADR-RES ovarian): 3.45 µM | TGI (NCI/ADR-RES ovarian): > 100 µM | GI50 (OVCAR-3 ovarian): 2.76 µM | TGI (OVCAR-3 ovarian): > 100 µM | GI50 (OVCAR-4 ovarian): 4.39 µM | TGI (OVCAR-4 ovarian): > 100 µM | GI50 (OVCAR-5 ovarian): 5.28 µM | TGI (OVCAR-5 ovarian): > 100 µM | GI50 (OVCAR-8 ovarian): 4.31 µM | TGI (OVCAR-8 ovarian): > 100 µM | GI50 (PC-3 prostate): 2.83 µM | TGI (PC-3 prostate): > 100 µM | GI50 (RPMI-8226 leukemia): 3.51 µM | TGI (RPMI-8226 leukemia): > 100 µM | GI50 (RXF 393 renal): 2.78 µM | TGI (RXF 393 renal): 14.3 µM | GI50 (SF-268 CNS): 3.51 µM | TGI (SF-268 CNS): > 100 µM | GI50 (SF-295 CNS): 2.74 µM | TGI (SF-295 CNS): 13.5 µM | GI50 (SF-539 CNS): 3.28 µM | TGI (SF-539 CNS): 12.8 µM | GI50 (SK-MEL-2 melanoma): 2.07 µM | TGI (SK-MEL-2 melanoma): 4.8 µM | GI50 (SK-MEL-28 melanoma): 2.97 µM | TGI (SK-MEL-28 melanoma): 25.8 µM | GI50 (SK-MEL-5 melanoma): 2.87 µM | TGI (SK-MEL-5 melanoma): 9.54 µM | GI50 (SK-OV-3 ovarian): 8.74 µM | TGI (SK-OV-3 ovarian): 60.7 µM | GI50 (SN12C renal): 3.18 µM | TGI (SN12C renal): > 100 µM | GI50 (SNB-19 CNS): 3.16 µM | TGI (SNB-19 CNS): > 100 µM | GI50 (SNB-75 CNS): 2.27 µM | TGI (SNB-75 CNS): 19.9 µM | GI50 (SR leukemia): 2.52 µM | TGI (SR leukemia): > 100 µM | GI50 (SW-620 colon): 3.74 µM | TGI (SW-620 colon): > 100 µM | GI50 (T-47D breast): 3.13 µM | TGI (T-47D breast): > 100 µM | GI50 (TK-10 renal): 6.25 µM | TGI (TK-10 renal): 40.3 µM | GI50 (U251 CNS): 2.95 µM | TGI (U251 CNS): 12.8 µM | GI50 (UACC-257 melanoma): 3.78 µM | TGI (UACC-257 melanoma): > 100 µM | GI50 (UACC-62 melanoma): 2.26 µM | TGI (UACC-62 melanoma): 6.2 µM | GI50 (UO-31 renal): 3.18 µM | TGI (UO-31 renal): > 100 µM
